Experimental data as given in patent publication US20170197938A1, “A QUINOLINE DERIVATIVE FOR THE TREATMENT OF INFLAMMATORY DISEASES AND AIDS” (ABIVAX, priority 2014, published 2017).

Experiments:
HIV-1 = assay: Inhibition of HIV-1 production in infected PBMCs (p24 ELISA); type: cell-based; details: Human immunodeficiency virus 1, PBMC, read-out: Activity (IC50)
Description: Within this framework, the peripheral blood mononuclear cells (PBMCs) of healthy donors are isolated by centrifugation on a FICOLL gradient. The cells are then activated two days to a density of 1.5×10^6 cells/ml in RPMI plutamax medium supplemented with 10% fetal calf serum (FCS), 40 U/ml of IL2 and 5 μg/ml PHA, in an incubator at 37° C., 5% CO2.
A standard experiment using 96 plates to test 30 molecules in triplicates including positive and negative controls, is performed as follows:
PHA/IL2 activated PBMCs are washed with RPMI 10% FCS and resuspended at 1.5×10^6 cells/ml in RPMI glutamax 10% FCS, 40 U/ml I12. The cells are seeded in 96 wells (1.5 10^5 cells/well/100 μl). Viral infection is performed with 1 ng of AdaM/well. 100 μl of tested molecules at concentration of 20 μM are added to each well (10 μM final concentration). Virus production is determined by p24 antigen immunosorbent assays after 3 and 6 days of infection (Kit Innogenetics). Typically PBMCs are prepared from several healthy donors (around 11 different donors). […]
The efficacy of compound of formula (1) and of compound no 1 as disclosed in document WO 2012/080953 is measured by the HIV-specific enzyme-linked immunosorbent assay, p24 ELISA.
Drug efficacy is expressed as percent inhibition of the HIV p24 antigen in this rapid and sensitive assay.

miR-124 = miR-124 expression in PBMCs treated with screened molecules (RT-qPCR, relative quantification); type: cell-based, human; details: for Fold-change compared to DMSO treated cells, Mean (miR-124 expression): PBMCs of healthy donors, 6 days treatment, quinoline derivative 5 μM, antiretroviral drugs 10 μM, mean of 4 or 5 donors; for effect on miR-124 expression in PBMCs (in words): antiretrovirals in four donors
Description: For that purpose, Peripheral blood mononuclear cells (PBMCs) of several healthy donors have been isolated by centrifugation on a FICOLL™ gradient according to standard protocols.
Briefly, 60-70 mL of buffy-coat are poured in a flask of 175 cm^2, and the volume is adjusted to 300 mL using PBS in order to obtain a dilution of about 5-fold of the buffy cost. 38 mL of diluted Buffy are then added to Falcon™ tubes of 50 mL comprising 12 mL of FICOLL™ (Histopack-1077) at ambient temperature. The preparation is centrifugated for 30 minutes at 515 rcf at ambient temperature. The lymphocyte ring is recovered from the Falcon™ tube with a transfer pipette (Pastette®) and then washed with PBS using centrifugation for 10 minutes at 290 rcf and at ambient temperature until the supernatant becomes clear.
The cells are then resuspended at 37° C. to a density of 1.5×10^6 cells/mL in RPMI Glutamax medium (Life Technologies Ref 61870-010) supplemented with 10% fetal calf serum (FCS) (Thermo Fisher Ref SV30160.03) and without activation. Cells are incubated for 48 hours at 37° C. under 5% CO2.
Six-well plates are used for the screening. Within each well comprising 3.10^6 cell/4 ml RPMI supplemented with 10% fetal calf serum and 40 U/mL IL-2 (Peprotech Ref 200-02) are added screened molecules. 100% DMSO (4 μL) is added to the well and tested as a negative control.
Each tested condition is set up as described here below and the final corresponding volume is adjusted accordingly in the well: • 1) Quinoline derivative in 100% DMSO—(5 μM and final volume 4 μL) • 2) Antiretroviral drugs: Maraviroc, Efavirenz, Darunavir, AZT (10 μM for all—final volume 4 μL).
The wells are incubated for three days at 37° C. under 5% CO2. Medium is changed (Day 3) according to standard protocols. Briefly, plates are centrifugated at 290 rcf for 5 minutes and 3 mL of supernatant is removed. 3 mL of RPMI supplemented with 10% fetal calf serum and 40 U/mL IL-2 is then added with 3 μL of a stock solution of screened molecule at 5 mM in 100% DMSO or 3 μL of 100% DMSO as a negative control.
Cells are recovered within Falcon™ tubes of 15 mL, centrifugated at 290 rcf for 5 minutes, and then washed in 10 mL PBS and further centrifugated at 290 rcf for 5 minutes. Cells are then resuspended in 1 mL PBS and counted.
6×10^6 cells are recovered and centrifugated at 290 rcf for 5 minutes. The cell pellet is lysed in 300 μL of ML lysis buffer from the Macherey Nagel Nucleospin® miRNA extraction kit (Macherey Nagel Ref 740971), and further stored at −20° C.
5 μL of 2×10^8 copies/μL of spike-in control (Ce_miR-39 from QIAGEN®—reference 219610 of SEQ ID No 6) are added for each sample. The miRNA extraction is achieved using the protocol from Macherey Nagel Nucleospin® miRNA extraction kit using an elution volume for RNAs of 50 μL and miRNAs of 30 μL, and further stored at −20° C.
The reverse transcription step is followed for 12 μL of miRNA using the miScript RT II reverse transcription (RT) kit from QIAGEN® using the miScript HiSpec buffer, and further stored at −20° C.
The quantitative PCR step is achieved using the QIAGEN® miScript SYBR® Green PCR kit and miScript Primer Assays according to the manufacturer's protocol.
The reaction is repeated in triplicates in a 384-well plate according to the manufacturer's protocol on a LightCycler® […] Roche Real-Time PCR system. Cycling conditions are also set up according to the manufacturer's protocol:
From a dilution to the 1/10th in H2O for the miR-124 qPCR (Hs'miR-124a) or to the 1/100th for reference/housekeeping gene qPCR (Hs_miR-26a and Hs_miR-191, using miScript Primer Assays (Hs_miR-124a, Hs_miR-26a and Hs_miR-191 or QIAGEN®—references ms00006622, ms00029239 and ms00003682).
The analysis is achieved using relative quantification models without efficiency correction (2^−ΔΔCp) using the average of crossing points (Cp) values from triplicates of miR-124 and the average of the average of triplicates of miR-26a and miR-191. […]

| Molecule | IC50 (HIV-1) [µM] | Fold-change compared to DMSO treated cells, Mean (miR-124 expression) (miR-124) | effect on miR-124 expression in PBMCs (in words) (miR-124) |
| --- | --- | --- | --- |
| FC(F)(F)c1ccnc(Nc2ccc3c(OCCN4CCOCC4)ccc(Cl)c3n2)c1 | 62.3 | – | – |
| Cc1cn([C@H]2C[C@H](N=[N+]=[N-])[C@@H](CO)O2)c(=O)[nH]c1=O [AZT] | – | 0.90 | none of the known antiretroviral (Maraviroc, Effavirenz, Darunavir or AZT) has any significant effect |
| FC(F)(F)c1ccnc(Nc2ccc3cc(OCCN4CCOCC4)cc(Cl)c3n2)c1 [Compound of formula (1), 8-chloro-6-(2-morpholinoethoxy)-N-(4-(trifluoromethyl)pyridin-2-yl)quinolin-2-amine] | 0.43 | 32.04 | up-regulate the expression levels of miR-124 |
| CC(C)CN(C[C@@H](O)[C@H](Cc1ccccc1)NC(=O)O[C@H]1CO[C@H]2OCC[C@H]21)S(=O)(=O)c1ccc(N)cc1 [Darunavir] | – | 1.08 | none of the known antiretroviral (Maraviroc, Effavirenz, Darunavir or AZT) has any significant effect |
| O=C1Nc2ccc(Cl)cc2[C@@](C#CC2CC2)(C(F)(F)F)O1 [Effavirenz, Efavirenz] | – | 0.46 | none of the known antiretroviral (Maraviroc, Effavirenz, Darunavir or AZT) has any significant effect |
| Maraviroc | – | 0.73 | none of the known antiretroviral (Maraviroc, Effavirenz, Darunavir or AZT) has any significant effect |
